This note sets out measurements from PMC12120773, “SIRT4 Promotes Pancreatic Cancer Stemness by Enhancing Histone Lactylation and Epigenetic Reprogramming Stimulated by Calcium Signaling” (Advanced Science, 2025).

What is called Kd is the equilibrium constant for the complex coming apart.

Assay [1] addresses T1, ENO1 (Enolase 1, α isoform of enolase) (Homo sapiens, UniProt P06733, K358Q).
T1 construct: recombinant protein expressed in E. coli (printed for the mutants), amine-coupled to CM5 chip
Kind of assay: SPR steady-state affinity (Biacore T200, CM5 chip). Type of assay: binding. On the technique in general: Surface plasmon resonance follows binding to a sensor surface in real time, without labels.

The target of assay [2] is T2, ENO1 (Enolase 1, α isoform of enolase) (Homo sapiens, UniProt P06733, K358R).
T2 construct: recombinant protein expressed in E. coli (printed for the mutants), amine-coupled to CM5 chip
The assay is described as follows: SPR steady-state affinity (Biacore T200, CM5 chip). It is filed as binding.

T1 sequence (P06733 2-434 K358Q): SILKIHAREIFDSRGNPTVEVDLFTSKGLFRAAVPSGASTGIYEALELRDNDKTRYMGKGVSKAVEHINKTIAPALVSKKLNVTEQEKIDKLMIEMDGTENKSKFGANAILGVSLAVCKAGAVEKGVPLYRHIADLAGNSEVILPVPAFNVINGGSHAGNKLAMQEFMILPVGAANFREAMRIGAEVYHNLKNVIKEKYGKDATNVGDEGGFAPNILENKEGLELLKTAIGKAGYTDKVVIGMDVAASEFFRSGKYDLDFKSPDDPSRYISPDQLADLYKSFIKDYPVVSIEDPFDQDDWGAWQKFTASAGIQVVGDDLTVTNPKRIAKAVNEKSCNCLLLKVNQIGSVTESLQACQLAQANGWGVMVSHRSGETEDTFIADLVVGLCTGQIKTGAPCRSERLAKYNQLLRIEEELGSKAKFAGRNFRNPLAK
T2 sequence (P06733 2-434 K358R): as the sequence (P06733 2-434 K358Q) above, with Q357R counted along it

Turning to `O=C(O)[C@@H](CO)OP(=O)(O)O` [2‐PG], the Kd in assay [1] worked out at 17.7 µM; in assay [2], 2.61 µM.
